Assay results: PMC10119930, “Dual Molecules Targeting 5-HT6 and GABA-A Receptors as a New Approach to Combat Depression Associated with Neuroinflammation” (ACS Chemical Neuroscience, 2023)

Experiments:
[1] = Thermodynamic solubility in PBS; assay type: physicochemical; conditions: Dulbecco’s phosphate buffered saline, 22 °C, aqueous buffer, thermodynamic from solid, PBS pH 7.4, rt
Protocol: The temperature of the column was preserved at 30 °C. The experiment was conducted under the following conditions: a flow rate of 5 mL/min, eluent A (water/0.1% HCOOH), eluent B (MeCN/0.1% HCOOH), a gradient of starting from 0% of B to 100% of B over a duration of 3 min. Each sample was injected at a volume of 10 μL in triplicate. […] These solutions were then utilized to generate calibration curves by plotting AUC versus concentration in μg/mL. The examined molecules (2 mg) were dissolved in 1 mL of Dulbecco’s phosphate buffered saline (DPBS). The mixture was then continuously agitated at 22 °C for 24 h using a thermoshaker. Following this period, the mixtures were filtered through a cellulose acetate syringe filter (with a pore size of 0.22 μm), moved to a chromatographic vial, and analyzed. To quantify the investigated compounds, the areas beneath their respective peaks on DAD chromatograms were employed. Solubility was calculated using the calibration curves. […] All the experiments were performed in duplicate.

[2] = Metabolic stability in rat liver microsomes; assay type: in vitro ADME; conditions: assayed at 10^–7 M
Protocol: The assay was performed by Eurofins Discovery, a contract research organization, according to standard methodology, described previously.[46]

[3] = Hepatotoxicity assay, HepG2 cell viability (PrestoBlue, ToxiLight); assay type: cell-based, human; conditions: human, HepG2 cells, 24 h, read-out: viability of cells, MEAN (percentage of control, live cells)
Protocol: (§1) Hepatotoxiticy assay was conducted according to our previously described procedures.[42]Cell culture and treatment: The human hepatocellular carcinoma (HepG2) cell line was acquired from ATCC, Manassas, USA (HB-8065), and maintained according to the manufacturer’s ATCC protocol. Cell culture conditions included a medium consisting of Dulbecco’s modified Eagle’s medium (DMEM, Merck), 10% fetal bovine serum, […], 100 IU/mL penicillin (acquired from ThermoFisher), humidified atmosphere containing 5% of carbon dioxide, temperature of 37 °C. The stock solution of the tested compound was prepared in DMSO (10 mM) and next diluted with buffered phosphate saline (PBS, Merck). Cell membrane damage was examined with the use of a ToxiLight bioassay (Lonza), rendering the manufacturer’s protocol described previously.[42] A culture medium containing 10% Triton X-100 (Merck) was used as the positive control of cell damage, while the negative control contained solely vehicle. After incubating for 5 min, the luminescence was examined with the plate reader POLARstar Omega (BMG Labtech). The results were expressed as a percentage of the positive control, which was defined as the percentage of dead cells relative to the control sample. Cell viability assay: The viability of cells was examined with the use of the PrestoBlue reagent (ThermoFisher) and protocol provided by the manufacturer. After incubating for 24 h with the examined compounds, one-tenth of the remaining medium volume was mixed with the reagent (PrestoBlue) in a microplate well. Following incubation at 37 °C during 15 min, the fluorescence (EX 530; EM 580 nm) was measured using the plate reader POLARstar Omega, (BMG Labtech). The viability values obtained are presented as a percentage of live cells relative to the DMSO (control sample). The GraphPad program was used to perform the statistical analysis. The mean values with their corresponding coefficient of variation (CV) were reported for all data. The differences between the groups were analyzed using one-way analysis of variance (ANOVA) followed by Dunnett’s multiple comparison tests as post hoc analysis. The statistical significance: p < 0.05.

HepG2 cells = assay: as above; assay type: cell-based, human; conditions: concentrations up to 50 μM; viability assay and ToxiLight
Protocol: as §1

5-HT6 receptor = 5-HT6 receptor (Homo sapiens, UniProt P50406); assay: Functional assay for 5-HT6 receptor, antagonist mode (aequorin, CHO-K1 cells); assay type: cell-based; design: expressed in transfected cells; host or cells: CHO-K1 (co-expressing mitochondrially targeted aequorin and G protein α16); conditions: ±S.E.M., read-out: 5-HT6 R KB
Protocol: The studies were acquired according to previous protocols.[41] All the examined compounds (novel and the reference) were dissolved in DMSO (1 mM) and diluted accordingly using the assay buffer, directly in 96-well microplate. The recombinant CHO-K1 cells expressing human GPCR, mitochondrially targeted aequorin, and the promiscuous G protein α16 specific for 5-HT6 were used for the functional assay. The cells were thawed and suspended in the appropriate buffer containing DMEM/HAM’s F12 with 0.1% protease free BSA and were then centrifuged. After adding coelenterazine h to a final concentration of 5 μM, the cell pellet was resuspended in the buffer. The cell suspension was incubated at 16 °C for 16 h while being protected from light, gently shaken, and diluted with assay buffer to a concentration of 5000 cells/mL. Following that, 50 μL of the cell suspension was introduced to preloaded white opaque 96-well microplates containing the tested molecules. This was done using the automatic injectors integrated into the radiometric and luminescence plate counter MicroBeta2 LumiJET (PerkinElmer, USA). The light emission resulting from calcium mobilization was monitored for a duration of 60 s. For examination of the antagonistic properties of tested molecule, following 30 min of incubation, the reference agonist was administrated and the light emission was detected.

Sequence of 5-HT6 receptor (P50406 whole entry): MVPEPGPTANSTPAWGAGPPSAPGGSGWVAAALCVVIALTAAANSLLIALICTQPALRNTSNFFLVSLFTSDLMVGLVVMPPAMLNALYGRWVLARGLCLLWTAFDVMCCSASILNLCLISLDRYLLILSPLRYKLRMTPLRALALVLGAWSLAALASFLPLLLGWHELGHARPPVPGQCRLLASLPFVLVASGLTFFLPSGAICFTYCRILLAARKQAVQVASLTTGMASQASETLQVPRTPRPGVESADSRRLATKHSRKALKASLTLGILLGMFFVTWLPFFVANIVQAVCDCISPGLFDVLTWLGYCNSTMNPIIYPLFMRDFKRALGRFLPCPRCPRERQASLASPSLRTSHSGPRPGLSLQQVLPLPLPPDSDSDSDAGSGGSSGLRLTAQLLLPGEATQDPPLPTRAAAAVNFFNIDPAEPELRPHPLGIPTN

## Cc1c(OCc2ccccc2)cccc1N1CCN(CCOC(=O)CCCN)CC1.Cl.Cl [Compound 16, 1-(2-((4-Ammoniobutanoyl)oxy)ethyl)-4-(3-(benzyloxy)-2-methylphenyl)piperazin-1-ium Dichloride]
[1]
  solubility at 24 h: > 2 mg/mL
[2]
  rat liver microsomes Clint: <115.5 (μL/min)/mg
  rat liver microsomes t0,5: >60 min
[3]; HepG2, 1 µM
  viability at 24 h, 1 µM: 102%
[3]; HepG2, 10 µM
  viability at 24 h, 10 µM: 104%
[3]; HepG2, 50 µM
  viability at 24 h, 50 µM: 102%
[3]; HepG2, 100 µM
  viability at 24 h, 100 µM: 14%
HepG2 cells
  reduction of HepG2 viability: not significant reduction of viability
5-HT6 receptor
  Kb: 0.0119 ± 0.0001 µM
